Assay results taken from US12491187B2, “Use of MCT1 inhibitors to enhance insulin sensitivity” (H. LEE MOFFIT CANCER CENTER AND RESEARCH INSTITUTE, INC., priority 2022, dated 2025).

What was measured:
Assay type in all cases: cell-based, murine
3T3-L1 cells = test: Immunoblotting of adipogenic proteins during differentiation; details: differentiated in the presence of 1 μM AZD3965
Experimental: Differentiation Protocol: The 3T3-L1 differentiation protocol was adapted from Green and Meuth (1974) (Zebisch, K, et al. Anal. Biochem. 2012 425:88-90; Green, H, et al. Cell 1974 3:127-133). Cells were seeded at approximately 80% confluency and allowed to reach confluency prior to induction of differentiation. 1-2 days post confluency, growth media was changed to ‘day 0’ media consisting of media supplemented with 0.5 mM 1-methyl-3-isobutyl xanthine (IBMX), 1 µM dexamethasone, and 10 μg/mL insulin. On ‘day 3’ media was changed to growth media with 10 μg/mL insulin only, and on ‘day 6’ media was replaced with normal growth media. After day 6, the complete media was refreshed every 2 days. Using Oil Red O staining, RT-qPCR and immunoblotting, it was determined that 3T3-L1 cells were fully differentiated into lipid-laden adipocytes by ‘day 8’ of the protocol, as reported by others (Petersen, C, et al. Sci. Rep. 2017 7:13101; Mangum, L H, et al. Toxicol. Lett. 2015 238:65-71). All differentiation experiments were performed on cells between passage 4 and 6 to ensure differentiation efficiency was consistent.
Immunoblotting: For the collection of membrane bound proteins (i.e., MCT1), cells were lysed and the membrane fraction of protein was isolated as previously described (Sadler, J B A, et al. Preparation of a total membrane fraction from 3T3-L1 adipocytes (Cold Spring Harb. Protoc. 2016, 2016, pdb-prot083675). Briefly, cells were lysed with ice cold HES buffer (250 mM sucrose, 20 mM HEPES, 1 mM EDTA, pH7.4) containing a cocktail of protease and phosphatase inhibitors (Roche Diagnostic) and centrifuged for 5 min (500 g at 4° C.) to pellet out nuclei. The remaining supernatant (containing cytosolic and membrane bound proteins) was collected. […] For all samples, protein concentration of the lysates was measured using the BCA Protein Assay Kit (Pierce Biotechnologies). […] Bands were quantified using Image Studio™ (LI-COR Biosciences).

[1] = system: differentiated 3T3-L1 adipocytes; test: Ki67 expression (confocal microscopy and quantification); details: 1 μM, 24 hr, vs untreated adipocytes
Experimental: Confocal Microscopy: Cells were seeded and differentiated on 8 chamber μ-Slides (Ibidi®). Differentiated cells treated with vehicle (DMSO) or 1 μM AZD3965 for 24 hr were fixed in 4% PFA for 10 min at room temperature, permeabilized with 0.1% Triton™ X-100 in PBS and blocked with 3% BSA in PBS for an hr. Cells were subsequently incubated with Ki67 antibody (NBP2-22112, Novus Biologicals) at a 1:500 dilution in PBS 3% BSA overnight at 4° C. Cells were washed with PBS and incubated with goat anti-rabbit Alexa Fluor 647 secondary antibody (Invitrogen) at 1:2000 dilution in PBS 3% BSA for 1 hr. Lipid droplets were stained with BODIPY® (Invitrogen) for 20 min at room temperature according to the manufacturer's recommendations. Nuclei were stained for 20 min at room temperature with 4,6-diamidino-2-phenylindole (DAPI) (Sigma-Aldrich) in PBS 3% BSA, diluted at 1:5000 from a 1 mg/ml stock. Images were acquired on the Leica TCS SP8 laser scanning confocal microscope Leica Microsystems) at a magnification of 630× with 3× zoom. Ki67 Expression Quantification: Slides were prepared as outlined in ‘Confocal Microscopy’, After staining, Ki67 expression was imaged and analyzed on the Cytation 5 Cell Imaging Multi-Mode reader (BioTek Instruments) through the measure of fluorescence intensity and deep red fluorescent (Alexa647) positive pixels. […]

[2] = system: differentiated 3T3-L1 cells; test: RT-qPCR of mRNA levels in differentiated adipocytes
Experimental: RT-qPCR: RNA was harvested from preadipocytes using the RNeasy® Plus Mini Kit as per manufacturer's recommendations (Qiagen). For differentiated adipocytes, RNA was collected and isolated using TRIzol (Thermo Fisher Scientific) according to the manufacturer's instructions. Quantification of RNA was performed using the Nanodrop 1000 Spectrophotometer. RNA (2 μg) was reverse transcribed using Superscript III First Strand synthesis kit (Invitrogen). RT-qPCR detection with SYBR green was performed with the resulting cDNA and a 50/50 forward primer: reverse primer ratio using the QuantStudio™ 5 (Applied Biosystems™). Oligonucleotide primer sequences used in this study can be found in the table below.

[3] = system: differentiated 3T3-L1 cells; test: NADP+ + NADPH bioavailability (NADP+/NADPH-Glo); details: 1 μM
Experimental: NADP++NADPH Bioavailability: 3T3-L1 cells were seeded, differentiated and treated with or without AZD3965 (1 μM) for up to 72 hr in clear 96 well plates (Corning®). Following treatment, the NADP+/NADPH-Glo™ (Promega®) kit was used to measure the total NADP++NADPH concentration within each sample according to the manufacturer's instructions. In the presence of either NADP+ or NADPH, an enzyme ‘Reductase’ reduces a pro-luciferin reductase substrate to form luciferin which emits a luminescent signal directly proportional to the quantity of NADP+ and NADPH. Luminescence was read on a spectrophotometer (FlexStation 3; Molecular Devices).

[4] = system: differentiated 3T3-L1 (WT) cells; test: Immunoblotting of protein expression in differentiated adipocytes
Experimental: Immunoblotting: For the collection of membrane bound proteins (i.e., MCT1), cells were lysed and the membrane fraction of protein was isolated as previously described (Sadler, J B A, et al. Preparation of a total membrane fraction from 3T3-L1 adipocytes (Cold Spring Harb. Protoc. 2016, 2016, pdb-prot083675). Briefly, cells were lysed with ice cold HES buffer (250 mM sucrose, 20 mM HEPES, 1 mM EDTA, pH7.4) containing a cocktail of protease and phosphatase inhibitors (Roche Diagnostic) and centrifuged for 5 min (500 g at 4° C.) to pellet out nuclei. The remaining supernatant (containing cytosolic and membrane bound proteins) was collected. For all other immunoblotting experiments, RIPA lysis buffer containing protease and phosphatase inhibitors was used, and protein was isolated via centrifugation at 17,000 g for 10 min at 4° C. For all samples, protein concentration of the lysates was measured using the BCA Protein Assay Kit (Pierce Biotechnologies). Diluted lysates were added to Laemmli sample buffer and denatured at 95° C. for 5 min. After sample preparation, proteins were resolved via SDS-polyacrylamide gel electrophoresis (4-12%) using NuPAGE 4-12% Bis-Tris gels (Invitrogen), and transferred to nitrocellulose membranes. Blots were placed in blocking buffer (LI-COR Biosciences) and incubated overnight at 4° C. with primary antibodies at the recommended dilution. Blots were washed 3 times (5 minutes per wash) in TBST (20 mM Tris, pH 7.6, 140 mM NaCl, and 0.1% Tween-20), and then incubated with the appropriate IRDye-conjugated secondary antibody (LI-COR Biosciences) diluted in blocking buffer and incubated at room temperature for an hr. […] Bands were quantified using Image Studio™ (LI-COR Biosciences).

[5] = differentiated adipocytes, 1 μM, 24 hr
[6] = mature adipocytes, 24 hr treatment

## Cc1[nH]nc(C(F)(F)F)c1Cc1sc2c(c1C(=O)N1C[C@](C)(O)CO1)c(=O)n(C)c(=O)n2C(C)C [AZD3965, 5-[[(4S)-4-hydroxy-4-methyl-2-isoxazolidinyl]carbonyl]-3-methyl-1-(1-methylethyl)-6-[[5-methyl-3-(trifluoromethyl)-1H-pyrazol-4-yl]methyl]-thieno[2,3-d]pyrimidine-2,4 (1H, 3H)-dione]
3T3-L1 cells
  FABP4 protein expression during differentiation: significantly attenuated
  HSL protein expression during differentiation: significantly attenuated
  PPARγ protein expression during differentiation: significantly attenuated
[1]
  expression of Ki67: significant increase
[2]; [5]
  CDK1 mRNA level: significant upregulation
  Cyclin B mRNA level: significant upregulation
  PLK1 mRNA level: significant upregulation
  TOP2A mRNA level: significant upregulation
[2]; [6]
  FABP4 mRNA levels: significantly increased
  HSL mRNA levels: significantly decreased
  PPARγ transcript levels: significant decrease
[3]; 24 hr, 48 hr and 72 hr
  concentration of NADP+/NADPH cofactor species: subtle, yet significant decrease
[3]; up to 72 hr
  decrease in intracellular concentrations of NADP+ (H): less than 15%
[4]; 1 μM, up to 72 hr
  total CDK1 protein expression: no change
[4]; 1 μM, up to 72 hr, normalized to total CDK1 and α-tubulin
  CDK1 phosphorylation at Tyr15: significant decrease
[4]; mature adipocytes, 24-72 hr treatment
  HSL protein expression: significant decrease
[4]; mature adipocytes, 48 hr treatment
  FABP4 protein expression: significantly increased
[4]; mature adipocytes, by 72 hr treatment
  FABP4 protein expression: this increase was attenuated
[4]; mature adipocytes, up to 72 hr treatment
  PPARγ protein expression: no changes
